Patent publication US4360511A, “Amines useful as brain imaging agents” (Medi-Physics, Inc., priority 1980, dated 1982)
Where two headings read alike, the source gives them in different places.

Tests used:
[1] = Robinson et al, J Nucl Med 17, p 1093 (1976); cited from earlier work
[2] = Bioassay: distribution of I-123-labeled compounds in organs of rats after tail vein injection (percent dose/gram, brain/blood ratio); assay type: in vivo, Female Sprague-Dawley rats; conditions: for tissue uptake at 1 h / tissue uptake at 5 min: rat, iv, 0.05 to 1.0 mCi, two rats; for tissue uptake at 1 h / Brain/Blood Ratio 60 min.: 60 minutes post-injection; for Brain/Blood Ratio 5 min. / tissue uptake at 5 min: 5 minutes post-injection
Description: Female Sprague-Dawley rats weighing approximately 150 g were anesthetized with sodium pentobarbital and were injected in a tail vein with from 0.05 to 1.0 mCi (in a volume of 0.2 to 0.5 ml) of the I-123-labeled compound. Two specimens were utilized for each test.
Two animals each were sacrificed at 5 minutes and 60 minutes post-injection, the tails discarded and the amount of activity in various organs determined. Each organ was counted at a standardized geometry with a sodium iodide crystal scintillation counter adjusted for the 159 keV emission of I-123. The organs were also weighed to one thousandth of a gram and the activity calculated as a percent of administered dose per gram of organ weight.
The ratio of brain-to-blood activity was calculated as a percent of administered dose per gram.

[3] = Friedman et al, July 1978; cited from earlier work
[4] = blood, read-out: Percent Dose/Gram Blood 60 min.
[5] = brain, read-out: Percent Dose/Gram Brain 60 min.
[6] = heart, read-out: Percent Dose/Gram Heart 60 min.
[7] = blood, read-out: Percent Dose/Gram Blood 5 min.
[8] = brain, read-out: Percent Dose/Gram Brain 5 min.
[9] = heart, read-out: Percent Dose/Gram Heart 5 min.

Q: With `Cc1c([123I])c(=O)n(-c2ccccc2)n1C` [I--123-iodoantipyrine, I-123 labeled 4-iodoantipyrine, reference compound] as the compound, how does the “concentration in the brain” value [1] read?
A: suboptimal concentration in the brain

Q: And the in vivo deiodination [1]?
A: rapid in vivo deiodination

Q: And the tissue uptake at 1 h [2, 4]?
A: 0.94 %ID/g

Q: And the tissue uptake at 1 h [2, 5]?
A: 0.17 %ID/g

Q: What about the tissue uptake at 1 h [2, 6] of the same compound?
A: 0.53 %ID/g

Q: With `C[C@H](N)Cc1ccc([123I])cc1` [I--123-S--p-iodoamphetamine, I-123-S-p-iodoamphetamine] as the compound, how does the “Brain/Blood Ratio 5 min.” value [2] read?
A: 7.04

Q: And the “Brain/Blood Ratio 60 min.” value [2]?
A: 11.30

Q: And the tissue uptake at 5 min [2, 7]?
A: 0.17 %ID/g

Q: What about the tissue uptake at 1 h [2, 4] of the same compound?
A: 0.17 %ID/g

Q: What about the tissue uptake at 5 min [2, 8] of the same compound?
A: 1.22 %ID/g

Q: What about the tissue uptake at 1 h [2, 5] of the same compound?
A: 1.88 %ID/g

Q: And the tissue uptake at 5 min [2, 9]?
A: 1.52 %ID/g

Q: And the tissue uptake at 1 h [2, 6]?
A: 0.86 %ID/g

Q: Which “Brain/Blood Ratio 5 min.” value [2] does the source give for `CC(C)(C)NCc1ccccc1[123I]` [I--123-N--t-butyl-o-iodobenzylamine, I-123-N-t-butyl-o-iodobenzylamine] here?
A: 8.85

Q: And the “Brain/Blood Ratio 60 min.” value [2]?
A: 8.16

Q: What about the tissue uptake at 5 min [2, 7] of the same compound?
A: 0.17 %ID/g

Q: What about the tissue uptake at 1 h [2, 4] of the same compound?
A: 0.11 %ID/g

Q: What about the tissue uptake at 5 min [2, 8] of the same compound?
A: 1.49 %ID/g

Q: And the tissue uptake at 1 h [2, 5]?
A: 0.89 %ID/g

Q: What about the tissue uptake at 5 min [2, 9] of the same compound?
A: 1.04 %ID/g

Q: What about the tissue uptake at 1 h [2, 6] of the same compound?
A: 0.49 %ID/g

Q: What does the source list for `[123I]c1ccccc1CN(CCc1ccccc1)CCc1ccccc1` [I--123-N,N--di-β-phenethyl-o-iodobenzylamine]?
A: Brain/Blood Ratio 5 min. [2]: 1.03; tissue uptake at 5 min [2, 7]: 1.03 %ID/g; tissue uptake at 5 min [2, 8]: 1.06 %ID/g; tissue uptake at 5 min [2, 9]: 3.61 %ID/g

Q: Which results are given for `CC(C)NCc1ccccc1[123I]` [I--123-N--isopropyl-o-iodobenzylamine, I-123-N-isopropyl-o-iodobenzylamine]?
A: Brain/Blood Ratio 5 min. [2]: 7.63; Brain/Blood Ratio 60 min. [2]: 1.04; tissue uptake at 5 min [2, 7]: 0.16 %ID/g; tissue uptake at 1 h [2, 4]: 0.62 %ID/g; tissue uptake at 5 min [2, 8]: 1.21 %ID/g; tissue uptake at 1 h [2, 5]: 0.64 %ID/g; tissue uptake at 5 min [2, 9]: 0.72 %ID/g; tissue uptake at 1 h [2, 6]: 0.47 %ID/g

Q: With 5-hydroxytryptophan as the compound, how does the “activity carried across the blood/brain barrier” value [3] read?
A: carried some activity across the blood/brain barrier

Q: And the decarboxylation in vivo [3]?
A: decarboxylated in vivo

Q: Which “Brain/Blood Ratio 5 min.” value [2] does the source give for `CCCNCCc1ccccc1[123I]` [I--123-N--propyl-o-iodo-β-phenethylamine] here?
A: 4.03

Q: And the “Brain/Blood Ratio 60 min.” value [2]?
A: 2.20

Q: And the tissue uptake at 5 min [2, 7]?
A: 0.29 %ID/g

Q: And the tissue uptake at 1 h [2, 4]?
A: 0.2 %ID/g

Q: What about the tissue uptake at 5 min [2, 8] of the same compound?
A: 1.17 %ID/g

Q: What about the tissue uptake at 1 h [2, 5] of the same compound?
A: 0.44 %ID/g

Q: What about the tissue uptake at 5 min [2, 9] of the same compound?
A: 1.54 %ID/g

Q: And the tissue uptake at 1 h [2, 6]?
A: 0.23 %ID/g

Q: For `[123I]c1ccccc1CCN(CCc1ccccc1)CCc1ccccc1` [I--123-N,N--di-β-phenethyl-o-iodo-β-phenethylamine], which “Brain/Blood Ratio 5 min.” value [2] is on record?
A: 0.24

Q: And the “Brain/Blood Ratio 60 min.” value [2]?
A: 0.17

Q: And the tissue uptake at 5 min [2, 7]?
A: 0.83 %ID/g

Q: What about the tissue uptake at 1 h [2, 4] of the same compound?
A: 0.65 %ID/g

Q: And the tissue uptake at 5 min [2, 8]?
A: 0.2 %ID/g

Q: What about the tissue uptake at 1 h [2, 5] of the same compound?
A: 0.11 %ID/g

Q: What about the tissue uptake at 5 min [2, 9] of the same compound?
A: 1.18 %ID/g

Q: And the tissue uptake at 1 h [2, 6]?
A: 0.62 %ID/g

Q: Which “Brain/Blood Ratio 5 min.” value [2] does the source give for `CC(C)NCCc1ccccc1[123I]` [I--123-N--isopropyl-o-iodo-β-phenethylamine] here?
A: 8.58

Q: And the “Brain/Blood Ratio 60 min.” value [2]?
A: 5.83

Q: What about the tissue uptake at 5 min [2, 7] of the same compound?
A: 0.12 %ID/g

Q: What about the tissue uptake at 1 h [2, 4] of the same compound?
A: 0.12 %ID/g

Q: And the tissue uptake at 5 min [2, 8]?
A: 1.03 %ID/g

Q: What about the tissue uptake at 1 h [2, 5] of the same compound?
A: 0.67 %ID/g

Q: And the tissue uptake at 5 min [2, 9]?
A: 0.88 %ID/g

Q: And the tissue uptake at 1 h [2, 6]?
A: 0.27 %ID/g

Q: What does the source list for `[123I]c1ccccc1CNCCc1ccccc1` [I--123-N--β-phenethyl-o-iodobenzylamine]?
A: Brain/Blood Ratio 5 min. [2]: 2.52; Brain/Blood Ratio 60 min. [2]: 0.96; tissue uptake at 5 min [2, 7]: 0.27 %ID/g; tissue uptake at 1 h [2, 4]: 0.14 %ID/g; tissue uptake at 5 min [2, 8]: 0.68 %ID/g; tissue uptake at 1 h [2, 5]: 0.14 %ID/g; tissue uptake at 5 min [2, 9]: 0.56 %ID/g; tissue uptake at 1 h [2, 6]: 0.15 %ID/g

Q: For `CCNCc1ccccc1[123I]` [I--123-N--ethyl-o-iodobenzylamine], which “Brain/Blood Ratio 5 min.” value [2] is on record?
A: 4.22

Q: What about the “Brain/Blood Ratio 60 min.” value [2] of the same compound?
A: 1.31

Q: What about the tissue uptake at 5 min [2, 7] of the same compound?
A: 0.25 %ID/g

Q: And the tissue uptake at 1 h [2, 4]?
A: 0.34 %ID/g

Q: And the tissue uptake at 5 min [2, 8]?
A: 1.06 %ID/g

Q: What about the tissue uptake at 1 h [2, 5] of the same compound?
A: 0.44 %ID/g

Q: And the tissue uptake at 5 min [2, 9]?
A: 0.79 %ID/g

Q: And the tissue uptake at 1 h [2, 6]?
A: 0.44 %ID/g

Q: Which “Brain/Blood Ratio 5 min.” value [2] does the source give for `CC(C)Nc1ccccc1[123I]` [I--123-N--isopropyl-o-iodoaniline] here?
A: 1.13

Q: And the “Brain/Blood Ratio 60 min.” value [2]?
A: 0.26

Q: And the tissue uptake at 5 min [2, 7]?
A: 0.78 %ID/g

Q: What about the tissue uptake at 1 h [2, 4] of the same compound?
A: 0.5 %ID/g

Q: And the tissue uptake at 5 min [2, 8]?
A: 0.88 %ID/g

Q: What about the tissue uptake at 1 h [2, 5] of the same compound?
A: 0.13 %ID/g

Q: What about the tissue uptake at 5 min [2, 9] of the same compound?
A: 0.75 %ID/g

Q: And the tissue uptake at 1 h [2, 6]?
A: 0.29 %ID/g

Q: With `CC(Cc1ccccc1)Nc1ccccc1[123I]` (racemic) [I--123-N--(o-iodophenyl)amphetamine (dl)] as the compound, how does the “Brain/Blood Ratio 5 min.” value [2] read?
A: 1.81

Q: And the “Brain/Blood Ratio 60 min.” value [2]?
A: 0.75

Q: What about the tissue uptake at 5 min [2, 7] of the same compound?
A: 0.53 %ID/g

Q: And the tissue uptake at 1 h [2, 4]?
A: 0.55 %ID/g

Q: And the tissue uptake at 5 min [2, 8]?
A: 0.96 %ID/g

Q: What about the tissue uptake at 1 h [2, 5] of the same compound?
A: 0.41 %ID/g

Q: And the tissue uptake at 5 min [2, 9]?
A: 1.64 %ID/g

Q: What about the tissue uptake at 1 h [2, 6] of the same compound?
A: 0.57 %ID/g

Q: With `Cc1cccc(C)c1NC(=O)CNCCc1ccccc1[123I]` [I--123-N--(2,6-dimethylphenylcarbamoyl)methyl-o-iodo-β-phenethylamine] as the compound, how does the “Brain/Blood Ratio 5 min.” value [2] read?
A: 1.33

Q: And the “Brain/Blood Ratio 60 min.” value [2]?
A: 0.31

Q: What about the tissue uptake at 5 min [2, 7] of the same compound?
A: 0.55 %ID/g

Q: What about the tissue uptake at 1 h [2, 4] of the same compound?
A: 0.26 %ID/g

Q: What about the tissue uptake at 5 min [2, 8] of the same compound?
A: 0.73 %ID/g

Q: And the tissue uptake at 1 h [2, 5]?
A: 0.08 %ID/g

Q: What about the tissue uptake at 5 min [2, 9] of the same compound?
A: 0.74 %ID/g

Q: What about the tissue uptake at 1 h [2, 6] of the same compound?
A: 0.21 %ID/g

Q: With `[123I]c1ccccc1CN1CCCCC1` [I--123-N--o-iodobenzylpiperidine] as the compound, how does the “Brain/Blood Ratio 5 min.” value [2] read?
A: 1.56

Q: What about the “Brain/Blood Ratio 60 min.” value [2] of the same compound?
A: 0.91

Q: What about the tissue uptake at 5 min [2, 7] of the same compound?
A: 0.6 %ID/g

Q: What about the tissue uptake at 1 h [2, 4] of the same compound?
A: 0.32 %ID/g

Q: What about the tissue uptake at 5 min [2, 8] of the same compound?
A: 0.93 %ID/g

Q: What about the tissue uptake at 1 h [2, 5] of the same compound?
A: 0.29 %ID/g

Q: What about the tissue uptake at 5 min [2, 9] of the same compound?
A: 0.56 %ID/g

Q: And the tissue uptake at 1 h [2, 6]?
A: 0.38 %ID/g

Q: What does the source list for `Nc1ccccc1[123I]` [I--123-o-iodoaniline]?
A: Brain/Blood Ratio 5 min. [2]: 0.28; Brain/Blood Ratio 60 min. [2]: 0.07; tissue uptake at 5 min [2, 7]: 1.7 %ID/g; tissue uptake at 1 h [2, 4]: 0.44 %ID/g; tissue uptake at 5 min [2, 8]: 0.47 %ID/g; tissue uptake at 1 h [2, 5]: 0.03 %ID/g; tissue uptake at 5 min [2, 9]: 1.02 %ID/g; tissue uptake at 1 h [2, 6]: 0.17 %ID/g
